Assay results from ChEMBL document CHEMBL2169789, “Potent HGF/c-Met axis inhibitors from Eucalyptus globulus: the coupling of phloroglucinol and sesquiterpenoid is essential for the activity” (J Med Chem, 2012).
Calls of active or inactive are those of the source. The calls are words filed in the database; no cut-off is given here.

What was measured:
[1] = molecular target: T1, Hepatocyte growth factor receptor (Homo sapiens, UniProt P08581); assay: Inhibition of c-MET assessed as inhibition of HGF-induced phosphorylation at 5 uM by Western blotting analysis
T1 sequence (P08581 whole entry): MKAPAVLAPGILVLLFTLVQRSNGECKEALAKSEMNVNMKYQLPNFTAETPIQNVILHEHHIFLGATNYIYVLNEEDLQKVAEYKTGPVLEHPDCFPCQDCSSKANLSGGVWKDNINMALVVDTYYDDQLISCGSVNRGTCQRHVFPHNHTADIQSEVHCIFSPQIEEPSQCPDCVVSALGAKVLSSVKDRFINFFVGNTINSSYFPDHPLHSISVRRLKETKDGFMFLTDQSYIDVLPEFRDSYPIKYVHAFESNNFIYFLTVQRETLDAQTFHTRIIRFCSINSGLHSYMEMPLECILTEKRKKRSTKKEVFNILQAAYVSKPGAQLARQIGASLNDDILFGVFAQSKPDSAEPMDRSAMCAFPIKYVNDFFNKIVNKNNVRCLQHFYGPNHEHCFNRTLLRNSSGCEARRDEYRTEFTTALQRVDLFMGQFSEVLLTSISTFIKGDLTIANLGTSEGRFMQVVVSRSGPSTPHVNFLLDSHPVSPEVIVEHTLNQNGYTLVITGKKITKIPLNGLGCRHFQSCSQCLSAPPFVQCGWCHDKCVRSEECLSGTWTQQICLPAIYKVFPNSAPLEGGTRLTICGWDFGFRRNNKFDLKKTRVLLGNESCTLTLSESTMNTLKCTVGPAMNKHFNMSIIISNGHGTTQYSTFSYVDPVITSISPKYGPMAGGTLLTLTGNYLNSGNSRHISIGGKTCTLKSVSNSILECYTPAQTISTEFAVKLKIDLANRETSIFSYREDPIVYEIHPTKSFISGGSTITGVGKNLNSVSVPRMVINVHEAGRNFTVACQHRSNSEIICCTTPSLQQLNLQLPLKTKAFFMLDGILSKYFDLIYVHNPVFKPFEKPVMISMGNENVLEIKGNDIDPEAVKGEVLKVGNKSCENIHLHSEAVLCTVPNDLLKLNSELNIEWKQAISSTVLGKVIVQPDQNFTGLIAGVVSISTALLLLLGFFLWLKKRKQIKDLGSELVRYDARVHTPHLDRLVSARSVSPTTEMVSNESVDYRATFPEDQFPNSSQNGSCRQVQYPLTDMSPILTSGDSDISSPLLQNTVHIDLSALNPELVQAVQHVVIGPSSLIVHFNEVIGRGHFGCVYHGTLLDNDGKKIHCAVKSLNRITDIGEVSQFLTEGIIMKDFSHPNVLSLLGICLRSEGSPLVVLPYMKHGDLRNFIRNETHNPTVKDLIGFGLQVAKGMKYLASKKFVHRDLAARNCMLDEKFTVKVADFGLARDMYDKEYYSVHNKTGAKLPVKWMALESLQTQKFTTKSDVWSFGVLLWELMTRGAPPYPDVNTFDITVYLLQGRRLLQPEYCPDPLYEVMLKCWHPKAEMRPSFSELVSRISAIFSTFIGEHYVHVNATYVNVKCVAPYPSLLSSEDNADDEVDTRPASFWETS

[2] = molecular target: Hepatocyte growth factor receptor (Canis lupus familiaris) (UniProt Q75ZY9); assay: Inhibition of HGF-induced phosphorylation of c-MET in MDCK cells after 2 hrs by Western blotting analysis; format: cell-based
Hepatocyte growth factor receptor (Canis lupus familiaris), sequence (Q75ZY9 whole entry): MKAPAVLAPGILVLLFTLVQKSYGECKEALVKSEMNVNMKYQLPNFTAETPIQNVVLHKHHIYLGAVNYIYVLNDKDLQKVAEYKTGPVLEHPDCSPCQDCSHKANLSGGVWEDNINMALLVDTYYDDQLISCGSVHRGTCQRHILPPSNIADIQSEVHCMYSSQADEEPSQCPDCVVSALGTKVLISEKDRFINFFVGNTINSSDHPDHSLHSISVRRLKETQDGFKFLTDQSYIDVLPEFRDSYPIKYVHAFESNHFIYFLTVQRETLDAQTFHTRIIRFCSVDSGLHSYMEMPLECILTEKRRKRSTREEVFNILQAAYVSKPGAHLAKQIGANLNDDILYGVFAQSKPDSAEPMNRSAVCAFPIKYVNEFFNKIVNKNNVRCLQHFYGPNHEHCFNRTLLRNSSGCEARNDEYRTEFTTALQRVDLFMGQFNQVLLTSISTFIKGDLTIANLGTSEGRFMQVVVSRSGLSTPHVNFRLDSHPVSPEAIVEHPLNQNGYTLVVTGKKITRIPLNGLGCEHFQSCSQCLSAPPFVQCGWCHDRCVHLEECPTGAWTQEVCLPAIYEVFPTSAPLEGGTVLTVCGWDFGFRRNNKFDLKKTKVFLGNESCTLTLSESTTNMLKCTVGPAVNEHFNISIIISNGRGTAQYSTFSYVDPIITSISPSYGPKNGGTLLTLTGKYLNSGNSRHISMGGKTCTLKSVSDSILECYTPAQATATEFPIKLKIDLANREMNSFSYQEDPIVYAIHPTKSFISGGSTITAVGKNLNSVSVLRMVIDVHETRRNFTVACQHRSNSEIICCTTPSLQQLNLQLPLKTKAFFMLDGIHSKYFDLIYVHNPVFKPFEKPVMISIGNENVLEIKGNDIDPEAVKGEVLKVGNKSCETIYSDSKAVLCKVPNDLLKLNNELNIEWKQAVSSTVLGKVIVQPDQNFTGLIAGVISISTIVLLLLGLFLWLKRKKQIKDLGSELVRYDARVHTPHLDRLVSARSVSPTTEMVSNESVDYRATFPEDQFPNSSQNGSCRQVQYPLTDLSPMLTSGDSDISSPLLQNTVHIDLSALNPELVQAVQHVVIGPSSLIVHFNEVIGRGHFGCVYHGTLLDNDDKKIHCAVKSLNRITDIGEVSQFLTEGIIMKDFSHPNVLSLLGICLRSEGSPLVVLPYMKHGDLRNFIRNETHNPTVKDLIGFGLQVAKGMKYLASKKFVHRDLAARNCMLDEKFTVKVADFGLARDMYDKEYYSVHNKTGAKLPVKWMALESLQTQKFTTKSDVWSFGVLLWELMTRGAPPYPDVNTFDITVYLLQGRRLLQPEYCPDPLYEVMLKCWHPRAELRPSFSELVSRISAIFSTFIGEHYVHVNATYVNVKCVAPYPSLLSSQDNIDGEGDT

[3] = molecular target: Hepatocyte growth factor receptor (Canis lupus familiaris) (UniProt Q75ZY9); assay: Inhibition of HGF-induced phosphorylation of c-MET in MDCK cells at 5 uM after 2 hrs by Western blotting analysis; format: cell-based
[4] = molecular target: T1, Hepatocyte growth factor receptor; assay: Inhibition of HGF-induced phosphorylation of c-MET in human A549 cells after 2 hrs by Western blotting analysis; format: cell-based
[5] = molecular target: T1, Hepatocyte growth factor receptor; assay: Inhibition of HGF-induced phosphorylation of c-MET in human A549 cells at 5 uM after 2 hrs by Western blotting analysis; format: cell-based
[6] = molecular target: Hepatocyte growth factor receptor (Canis lupus familiaris) (UniProt Q75ZY9); assay: Inhibition of c-MET in MDCK cells assessed as inhibition of HGF-induced branching morphogenesis after 5 days by microscopic analysis; format: cell-based
[7] = molecular target: Hepatocyte growth factor receptor (Canis lupus familiaris) (UniProt Q75ZY9); assay: Inhibition of c-MET in MDCK cells assessed as inhibition of HGF-induced urokinase activity at 10 uM after 24 hrs; format: cell-based
[8] = molecular target: Hepatocyte growth factor receptor (Canis lupus familiaris) (UniProt Q75ZY9); assay: Inhibition of c-MET in MDCK cells assessed as inhibition of HGF-induced urokinase activity after 24 hrs; format: cell-based
[9] = molecular target: Hepatocyte growth factor receptor (Canis lupus familiaris) (UniProt Q75ZY9); assay: Inhibition of c-MET in MDCK cells assessed as inhibition of HGF-induced cell motility at 10 uM by wound healing assay; format: cell-based
[10] = molecular target: Hepatocyte growth factor receptor (Canis lupus familiaris) (UniProt Q75ZY9); assay: Inhibition of c-MET in MDCK cells assessed as inhibition of HGF-induced cell motility by wound healing assay; format: cell-based
[11] = molecular target: Hepatocyte growth factor receptor (Canis lupus familiaris) (UniProt Q75ZY9); assay: Inhibition of c-MET in MDCK cells assessed as inhibition of HGF-induced cell scattering at 10 uM after 24 hrs by microscopic analysis; format: cell-based
[12] = molecular target: Hepatocyte growth factor receptor (Canis lupus familiaris) (UniProt Q75ZY9); assay: Inhibition of c-MET in MDCK cells assessed as inhibition of HGF-induced cell scattering after 24 hrs by microscopic analysis; format: cell-based
[13] = molecular target: T1, Hepatocyte growth factor receptor; assay: Inhibition of c-MET by ELISA assay
[14] = molecular target: T1, Hepatocyte growth factor receptor; assay: Inhibition of c-MET in human MKN45 cells assessed as reduction of phosphorylation at 20 uM after 2 hrs by Western blotting analysis; format: cell-based; conditions: MKN-45
[15] = molecular target: Hepatocyte growth factor receptor (Mus musculus) (UniProt P16056); assay: Inhibition of c-MET in mouse NIH3T3 cells assessed as reduction of TPR-Met phosphorylation at 20 uM after 2 hrs by Western blotting analysis; format: cell-based
Hepatocyte growth factor receptor (Mus musculus), sequence (P16056 whole entry): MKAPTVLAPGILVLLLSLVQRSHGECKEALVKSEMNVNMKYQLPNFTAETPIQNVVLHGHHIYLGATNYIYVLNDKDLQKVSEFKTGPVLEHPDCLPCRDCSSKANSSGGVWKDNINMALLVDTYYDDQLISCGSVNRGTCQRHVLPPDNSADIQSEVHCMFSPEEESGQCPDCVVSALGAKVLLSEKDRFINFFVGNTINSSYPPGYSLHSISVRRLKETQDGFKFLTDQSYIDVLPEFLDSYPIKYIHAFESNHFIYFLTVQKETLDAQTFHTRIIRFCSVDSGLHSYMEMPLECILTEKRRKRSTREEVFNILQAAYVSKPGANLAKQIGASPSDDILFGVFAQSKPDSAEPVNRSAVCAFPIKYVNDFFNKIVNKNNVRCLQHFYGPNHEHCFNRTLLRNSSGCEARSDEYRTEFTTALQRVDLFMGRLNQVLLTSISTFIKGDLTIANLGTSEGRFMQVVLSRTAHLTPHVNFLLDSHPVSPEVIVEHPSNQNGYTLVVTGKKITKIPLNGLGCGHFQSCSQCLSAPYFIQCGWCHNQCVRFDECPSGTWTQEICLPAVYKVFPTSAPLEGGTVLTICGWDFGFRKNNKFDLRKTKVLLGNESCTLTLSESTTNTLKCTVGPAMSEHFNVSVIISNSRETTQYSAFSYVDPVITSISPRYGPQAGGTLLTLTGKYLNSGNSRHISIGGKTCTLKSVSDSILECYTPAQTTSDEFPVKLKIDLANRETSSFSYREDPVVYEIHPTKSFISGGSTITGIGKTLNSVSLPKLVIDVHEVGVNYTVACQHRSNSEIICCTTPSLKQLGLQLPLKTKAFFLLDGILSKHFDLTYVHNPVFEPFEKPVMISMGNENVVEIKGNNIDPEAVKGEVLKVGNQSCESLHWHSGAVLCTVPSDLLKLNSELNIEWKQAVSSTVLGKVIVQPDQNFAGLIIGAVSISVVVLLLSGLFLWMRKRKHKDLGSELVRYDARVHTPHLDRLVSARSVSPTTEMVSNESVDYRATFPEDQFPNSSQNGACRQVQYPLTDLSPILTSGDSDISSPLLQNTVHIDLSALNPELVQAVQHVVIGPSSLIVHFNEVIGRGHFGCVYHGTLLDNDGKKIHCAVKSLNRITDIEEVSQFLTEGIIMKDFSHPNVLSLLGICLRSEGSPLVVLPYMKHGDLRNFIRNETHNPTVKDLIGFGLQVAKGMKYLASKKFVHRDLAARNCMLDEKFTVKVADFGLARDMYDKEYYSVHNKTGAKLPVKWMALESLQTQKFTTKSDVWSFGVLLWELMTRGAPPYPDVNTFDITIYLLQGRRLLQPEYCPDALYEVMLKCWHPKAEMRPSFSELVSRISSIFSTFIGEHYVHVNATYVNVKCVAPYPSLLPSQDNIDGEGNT

[16] = molecular target: T1, Hepatocyte growth factor receptor; assay: Inhibition of HGF-induced phosphorylation of c-MET in human DU145 cells at 5 uM after 2 hrs by Western blotting analysis; format: cell-based; conditions: DU-145
[17] = molecular target: T1, Hepatocyte growth factor receptor; assay: Inhibition of HGF-induced phosphorylation of c-MET in human DU145 cells after 2 hrs by Western blotting analysis; format: cell-based; conditions: DU-145
[18] = molecular target: T1, Hepatocyte growth factor receptor; assay: Inhibition of HGF-induced phosphorylation of c-MET in human NCI-H441 cells at 5 uM after 2 hrs by Western blotting analysis; format: cell-based
[19] = molecular target: T1, Hepatocyte growth factor receptor; assay: Inhibition of HGF-induced phosphorylation of c-MET in human NCI-H441 cells after 2 hrs by Western blotting analysis; format: cell-based

In the case of `CC1(C)[C@H]2[C@H]3[C@@H](CC[C@]3(C)O)[C@](C)(O)CC[C@H]21`, the inhibition [1] is reported as “inactive”.

In the case of `C[C@@H]1CC[C@@H]2[C@@H]1[C@H]1[C@@H](CC[C@@]2(C)O)C1(C)C`, the inhibition [1] is reported as “inactive”.

With `CC(C)CC(=O)c1c(O)c(C=O)c(O)c(C[C@@]2(C)CC[C@@H]3[C@@H]2[C@H]2[C@@H](CC[C@@]3(C)O)C2(C)C)c1O` [EUCALYPTIN A] the inhibition [2] was “Dose-dependent effect”, the inhibition [3] was over 50% and the inhibition [4] was “Dose-dependent effect”. For the same compound, the inhibition [5] was over 50%, the inhibition [1] was “Active” and the inhibition [6] was “Active”. The inhibition [7] was 80%, the inhibition [8] was “Dose-dependent effect” and the inhibition [9] was “Active”. For the same compound, the inhibition [10] was “Dose-dependent effect”, the inhibition [11] was “Active” and the inhibition [12] was “Dose-dependent effect”. For the same compound, the IC50 [13] was over 50 µM, the inhibition [14] was “inactive” and the inhibition [15] was “inactive”. For the same compound, the inhibition [16] was over 50%, the inhibition [17] was “Dose-dependent effect” and the inhibition [18] was over 50%. For the same compound, the inhibition [19] was “Dose-dependent effect”.

In the case of `Cc1c(O)c(C=O)c(O)c(C(=O)CC(C)C)c1O`, the inhibition [1] is reported as “inactive”.

In the case of `CC(C)CC(=O)c1c(O)c(C=O)c(O)c(C=O)c1O`, the inhibition [1] is reported as “inactive”.

In the case of `CC(C)C[C@@H](c1c(O)c(C=O)c(O)c(C=O)c1O)[C@@]1(C)CC[C@@H]2[C@@H]1[C@H]1[C@@H](CC[C@@]2(C)O)C1(C)C`, the inhibition [1] is reported as “Active”.

`CC(C)C[C@H](c1c(O)c(C=O)c(O)c(C=O)c1O)[C@@]1(C)CC[C@@H]2[C@@H]1[C@H]1[C@@H](CC[C@@]2(C)O)C1(C)C` was tested, and the inhibition [1] was “Active”.
